Experimental data: patent US20240252454A1, “COMPOSITION COMPRISING AN INHIBITOR OF MITOCHONDRIAL TRANSCRIPTION” (LEAD DISCOVERY CENTER GMBH, priority 2021, published 2024)

Experiments:
Experiment in all cases: SRB assay, IMT combined with inhibitor
Format in all cases: cell-based
[1] = test system: HELA; details: HELA (cervix); concentration series of the labelled inhibitor + fixed concentration of IMT (3S)-1-[(2R)-2-[4-(2-chloro-4-fluoro-phenyl)-2-oxo-chromen-7-yl]oxypropanoyl]piperidine-3-carboxylic acid (Table 3: 40 nM, 120 h); negative=synergistic, positive=antagonistic
Procedure, shortened: (§1)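 Cells are grown at near-physiological glucose (5 mM) and given a dilution series of a MAPK signalling pathway SOC plus 40 nM (3S)-1-[(2R)-2-[4-(2-chloro-4-fluoro-phenyl)-2-oxo-chromen-7-yl]oxypropanoyl]piperidine-3-carboxylic acid held constant. After 120 h, biomass is quantified with sulforhodamine B.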

[2] = test system: HCT116; details: HCT116 (colon); concentration series of the labelled inhibitor + fixed concentration of IMT (3S)-1-[(2R)-2-[4-(2-chloro-4-fluoro-phenyl)-2-oxo-chromen-7-yl]oxypropanoyl]piperidine-3-carboxylic acid (Table 3: 40 nM, 120 h); negative=synergistic, positive=antagonistic
Procedure, shortened: as §1

[3] = test system: MIAPACA2; details: MIAPACA2 (pancreas); concentration series of the labelled inhibitor + fixed concentration of IMT (3S)-1-[(2R)-2-[4-(2-chloro-4-fluoro-phenyl)-2-oxo-chromen-7-yl]oxypropanoyl]piperidine-3-carboxylic acid (Table 3: 40 nM, 120 h); negative=synergistic, positive=antagonistic
Procedure, shortened: as §1

[4] = test system: SKMEL5; details: SKMEL5 (skin); concentration series of the labelled inhibitor + fixed concentration of IMT (3S)-1-[(2R)-2-[4-(2-chloro-4-fluoro-phenyl)-2-oxo-chromen-7-yl]oxypropanoyl]piperidine-3-carboxylic acid (Table 3: 40 nM, 120 h); negative=synergistic, positive=antagonistic
Procedure, shortened: as §1

[5] = test system: A375; details: A375 (skin); concentration series of the labelled inhibitor + fixed concentration of IMT (3S)-1-[(2R)-2-[4-(2-chloro-4-fluoro-phenyl)-2-oxo-chromen-7-yl]oxypropanoyl]piperidine-3-carboxylic acid (Table 3: 40 nM, 120 h); negative=synergistic, positive=antagonistic
Procedure, shortened: as §1

[6] = test system: HEPG2; details: HEPG2 (liver); concentration series of the labelled inhibitor + fixed concentration of IMT (3S)-1-[(2R)-2-[4-(2-chloro-4-fluoro-phenyl)-2-oxo-chromen-7-yl]oxypropanoyl]piperidine-3-carboxylic acid (Table 3: 40 nM, 120 h); negative=synergistic, positive=antagonistic
Procedure, shortened: as §1

[7] = test system: SW620; details: SW620 (colon); concentration series of the labelled inhibitor + fixed concentration of IMT (3S)-1-[(2R)-2-[4-(2-chloro-4-fluoro-phenyl)-2-oxo-chromen-7-yl]oxypropanoyl]piperidine-3-carboxylic acid (Table 3: 40 nM, 120 h); negative=synergistic, positive=antagonistic
Procedure, shortened: as §1

[8] = test system: U87MG; details: U87MG (brain); concentration series of the labelled inhibitor + fixed concentration of IMT (3S)-1-[(2R)-2-[4-(2-chloro-4-fluoro-phenyl)-2-oxo-chromen-7-yl]oxypropanoyl]piperidine-3-carboxylic acid (Table 3: 40 nM, 120 h); negative=synergistic, positive=antagonistic
Procedure, shortened: as §1

[9] = test system: BXPC3; details: BXPC3 (pancreas); concentration series of the labelled inhibitor + fixed concentration of IMT (3S)-1-[(2R)-2-[4-(2-chloro-4-fluoro-phenyl)-2-oxo-chromen-7-yl]oxypropanoyl]piperidine-3-carboxylic acid (Table 3: 40 nM, 120 h); negative=synergistic, positive=antagonistic
Procedure, shortened: as §1

[10] = test system: KASUMI-1; details: KASUMI-1 (hematological); concentration series of the labelled inhibitor + fixed concentration of IMT (3S)-1-[(2R)-2-[4-(2-chloro-4-fluoro-phenyl)-2-oxo-chromen-7-yl]oxypropanoyl]piperidine-3-carboxylic acid (Table 3: 40 nM, 120 h); negative=synergistic, positive=antagonistic
Procedure, shortened: as §1

[11] = test system: GRANTA-519; details: GRANTA-519 (hematological); concentration series of the labelled inhibitor + fixed concentration of IMT (3S)-1-[(2R)-2-[4-(2-chloro-4-fluoro-phenyl)-2-oxo-chromen-7-yl]oxypropanoyl]piperidine-3-carboxylic acid (Table 3: 40 nM, 120 h); negative=synergistic, positive=antagonistic
Procedure, shortened: as §1

[12] = test system: HT29; details: HT29 (colon); concentration series of the labelled inhibitor + fixed concentration of IMT (3S)-1-[(2R)-2-[4-(2-chloro-4-fluoro-phenyl)-2-oxo-chromen-7-yl]oxypropanoyl]piperidine-3-carboxylic acid (Table 3: 40 nM, 120 h); negative=synergistic, positive=antagonistic
Procedure, shortened: as §1

[13] = test system: DU145; details: DU145 (prostate); concentration series of the labelled inhibitor + fixed concentration of IMT (3S)-1-[(2R)-2-[4-(2-chloro-4-fluoro-phenyl)-2-oxo-chromen-7-yl]oxypropanoyl]piperidine-3-carboxylic acid (Table 3: 40 nM, 120 h); negative=synergistic, positive=antagonistic
Procedure, shortened: as §1

[14] = test system: LOVO; details: LOVO (colon); concentration series of the labelled inhibitor + fixed concentration of IMT (3S)-1-[(2R)-2-[4-(2-chloro-4-fluoro-phenyl)-2-oxo-chromen-7-yl]oxypropanoyl]piperidine-3-carboxylic acid (Table 3: 40 nM, 120 h); negative=synergistic, positive=antagonistic
Procedure, shortened: as §1

Question: How did the “difference between the calculated combinatorial index (BLISS) and the observed combinatorial effect” value [1] turn out when `CC(C)Nc1cc(-c2c[nH]c(C(=O)N[C@H](CO)c3cccc(Cl)c3)c2)c(Cl)cn1` [Ulixertinib] was run?
Answer: The value was −0.0117.

Question: And the “difference between the calculated combinatorial index (BLISS) and the observed combinatorial effect” value [2]?
Answer: Its value is −0.0066.

Question: What about the “difference between the calculated combinatorial index (BLISS) and the observed combinatorial effect” value [3] of the same compound?
Answer: Its value is 0.0431.

Question: And the “difference between the calculated combinatorial index (BLISS) and the observed combinatorial effect” value [4]?
Answer: The value was −0.0542.

Question: What about the “difference between the calculated combinatorial index (BLISS) and the observed combinatorial effect” value [5] of the same compound?
Answer: Its value is 0.0427.

Question: And the “difference between the calculated combinatorial index (BLISS) and the observed combinatorial effect” value [6]?
Answer: Its value is 0.0953.

Question: What about the “difference between the calculated combinatorial index (BLISS) and the observed combinatorial effect” value [7] of the same compound?
Answer: Its value is 0.0256.

Question: And the “difference between the calculated combinatorial index (BLISS) and the observed combinatorial effect” value [8]?
Answer: Its value is 0.0859.

Question: And the “difference between the calculated combinatorial index (BLISS) and the observed combinatorial effect” value [9]?
Answer: The value was 0.0946.

Question: What about the “difference between the calculated combinatorial index (BLISS) and the observed combinatorial effect” value [10] of the same compound?
Answer: Its value is 0.0068.

Question: And the “difference between the calculated combinatorial index (BLISS) and the observed combinatorial effect” value [11]?
Answer: Its value is 0.0393.

Question: What about the “difference between the calculated combinatorial index (BLISS) and the observed combinatorial effect” value [12] of the same compound?
Answer: Its value is 0.0702.

Question: What about the “difference between the calculated combinatorial index (BLISS) and the observed combinatorial effect” value [13] of the same compound?
Answer: The value was 0.0554.

Question: And the “difference between the calculated combinatorial index (BLISS) and the observed combinatorial effect” value [14]?
Answer: Its value is 0.0039.
